{"source": "ChEMBL document CHEMBL1201862", "about": "“PubChem BioAssay data set” (2004)", "key": {"Protein Rev": {"target": "Protein Rev (Human immunodeficiency virus type 1 group M subtype B (isolate HXB2)(HIV-1), UniProt P04618)", "sequence (P04618 whole entry)": "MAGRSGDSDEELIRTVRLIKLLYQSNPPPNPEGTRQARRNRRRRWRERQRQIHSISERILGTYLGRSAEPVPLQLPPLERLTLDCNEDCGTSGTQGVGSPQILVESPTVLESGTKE", "experiment": "inhibitors of Rev binding to RRE RNA, dose response, biochemical, fluorescence polarization, HIV-1 (AID 434976)", "parameters": "species or system Human immunodeficiency virus 1"}, "[1]": {"target": "T1, Polyadenylate-binding protein 1 (Homo sapiens, UniProt P11940)", "T1 sequence (P11940 whole entry)": "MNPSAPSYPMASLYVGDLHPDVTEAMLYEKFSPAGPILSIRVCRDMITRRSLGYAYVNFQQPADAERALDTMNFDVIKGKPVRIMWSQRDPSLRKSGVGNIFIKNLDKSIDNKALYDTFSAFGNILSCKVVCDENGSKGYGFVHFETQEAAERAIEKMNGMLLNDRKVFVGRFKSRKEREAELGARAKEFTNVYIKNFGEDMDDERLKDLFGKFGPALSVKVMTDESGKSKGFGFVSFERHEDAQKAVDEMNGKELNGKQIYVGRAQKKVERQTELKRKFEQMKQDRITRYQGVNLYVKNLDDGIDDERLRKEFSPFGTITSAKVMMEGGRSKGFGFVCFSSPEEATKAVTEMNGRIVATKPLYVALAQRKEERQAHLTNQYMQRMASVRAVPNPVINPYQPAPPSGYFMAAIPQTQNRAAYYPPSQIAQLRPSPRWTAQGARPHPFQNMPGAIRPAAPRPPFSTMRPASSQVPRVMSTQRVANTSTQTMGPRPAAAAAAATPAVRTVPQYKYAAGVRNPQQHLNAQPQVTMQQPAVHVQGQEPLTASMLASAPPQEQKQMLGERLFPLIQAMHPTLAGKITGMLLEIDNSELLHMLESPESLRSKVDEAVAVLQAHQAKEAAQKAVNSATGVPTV", "experiment": "PABP1 MLLE–PAM2 interaction inhibitors, dose response, miRNA deadenylation inhibitor project, biochemical, fluorescence polarization, Cy5-PAM2 peptide, secondary (AID 602260)", "format": "functional", "settings": "read-out: IC50_Mean"}, "[2]": {"target": "T1, Polyadenylate-binding protein 1", "experiment": "PABP1 MLLE–PAM2 binding inhibitor potency, dose response, biochemical, fluorescence polarization, FITC-PAM2 peptide (AID 602259)", "format": "functional", "settings": "read-out: IC50_Mean"}, "[3]": {"target": "Female germline-specific tumor suppressor gld-1 (Caenorhabditis elegans, UniProt Q17339)", "experiment": "inhibitors of GLD-1 binding to TGE RNA, dose response, biochemical, fluorescence polarization, C. elegans (AID 2802);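 further: fluorescence polarization of labeled TGE RNA bound by purified gld-1 protein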"}, "Aspartyl aminopeptidase": {"target": "Aspartyl aminopeptidase (Plasmodium falciparum 3D7, UniProt Q8I2J3)"}, "[4]": {"target": "T2, Zinc finger protein mex-5 (Caenorhabditis elegans, UniProt Q9XUB2)", "T2 sequence (Q9XUB2 whole entry)": "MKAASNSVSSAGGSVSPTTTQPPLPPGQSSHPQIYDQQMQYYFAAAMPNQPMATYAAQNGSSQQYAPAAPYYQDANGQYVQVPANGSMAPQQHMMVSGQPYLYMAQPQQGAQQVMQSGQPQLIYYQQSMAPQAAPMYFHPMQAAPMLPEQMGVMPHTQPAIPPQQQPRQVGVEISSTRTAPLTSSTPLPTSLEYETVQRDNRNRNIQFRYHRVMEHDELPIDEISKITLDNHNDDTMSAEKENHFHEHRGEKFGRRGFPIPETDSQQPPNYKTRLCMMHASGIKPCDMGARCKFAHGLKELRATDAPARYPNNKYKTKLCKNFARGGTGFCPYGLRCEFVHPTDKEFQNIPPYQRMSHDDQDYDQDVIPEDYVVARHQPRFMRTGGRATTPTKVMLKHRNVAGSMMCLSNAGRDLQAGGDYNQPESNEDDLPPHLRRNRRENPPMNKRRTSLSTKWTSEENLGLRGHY", "experiment": "MEX-5/TCR-2 RNA interaction inhibitors, dose response, biochemical, C. elegans, fluorescence polarization (AID 1960)"}, "[5]": {"target": "T3, RNA-binding protein pos-1 (Caenorhabditis elegans, UniProt G5EF15)", "T3 sequence (G5EF15 whole entry)": "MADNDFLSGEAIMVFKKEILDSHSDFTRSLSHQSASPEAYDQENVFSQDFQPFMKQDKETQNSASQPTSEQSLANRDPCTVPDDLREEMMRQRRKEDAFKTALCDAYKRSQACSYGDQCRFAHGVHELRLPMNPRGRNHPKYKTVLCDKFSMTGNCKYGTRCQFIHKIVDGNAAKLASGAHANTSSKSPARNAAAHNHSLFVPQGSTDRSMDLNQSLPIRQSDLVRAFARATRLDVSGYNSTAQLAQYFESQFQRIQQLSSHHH", "experiment": "inhibitors of POS-1/mex-3 RNA binding, dose response, biochemical, fluorescence polarization (AID 1964);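 further: purified POS-1 fused to maltose binding protein made in E. coli; potency of compounds blocking POS-1 binding to fluorescent RNA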"}, "Procathepsin L": {"target": "Procathepsin L (Homo sapiens, UniProt P07711)"}, "Large T antigen": {"target": "Large T antigen (Simian virus 40, UniProt P03070)", "format": "functional, Betapolyomavirus macacae"}, "HEK293": {"tested_on": "HEK293", "experiment": "cells", "settings": "Homo sapiens"}, "Tumor necrosis factor": {"target": "Tumor necrosis factor (Homo sapiens, UniProt P01375)", "experiment": "TNFa-triggered NF-kB activation inhibitors, SAR follow-up, cell-based, revised (AID 2337)", "format": "functional"}, "[6]": {"target": "Nucleotide-binding oligomerization domain-containing protein 2 (Homo sapiens, UniProt Q9HC29)", "sequence (Q9HC29 whole entry, the tested form may be a part)": "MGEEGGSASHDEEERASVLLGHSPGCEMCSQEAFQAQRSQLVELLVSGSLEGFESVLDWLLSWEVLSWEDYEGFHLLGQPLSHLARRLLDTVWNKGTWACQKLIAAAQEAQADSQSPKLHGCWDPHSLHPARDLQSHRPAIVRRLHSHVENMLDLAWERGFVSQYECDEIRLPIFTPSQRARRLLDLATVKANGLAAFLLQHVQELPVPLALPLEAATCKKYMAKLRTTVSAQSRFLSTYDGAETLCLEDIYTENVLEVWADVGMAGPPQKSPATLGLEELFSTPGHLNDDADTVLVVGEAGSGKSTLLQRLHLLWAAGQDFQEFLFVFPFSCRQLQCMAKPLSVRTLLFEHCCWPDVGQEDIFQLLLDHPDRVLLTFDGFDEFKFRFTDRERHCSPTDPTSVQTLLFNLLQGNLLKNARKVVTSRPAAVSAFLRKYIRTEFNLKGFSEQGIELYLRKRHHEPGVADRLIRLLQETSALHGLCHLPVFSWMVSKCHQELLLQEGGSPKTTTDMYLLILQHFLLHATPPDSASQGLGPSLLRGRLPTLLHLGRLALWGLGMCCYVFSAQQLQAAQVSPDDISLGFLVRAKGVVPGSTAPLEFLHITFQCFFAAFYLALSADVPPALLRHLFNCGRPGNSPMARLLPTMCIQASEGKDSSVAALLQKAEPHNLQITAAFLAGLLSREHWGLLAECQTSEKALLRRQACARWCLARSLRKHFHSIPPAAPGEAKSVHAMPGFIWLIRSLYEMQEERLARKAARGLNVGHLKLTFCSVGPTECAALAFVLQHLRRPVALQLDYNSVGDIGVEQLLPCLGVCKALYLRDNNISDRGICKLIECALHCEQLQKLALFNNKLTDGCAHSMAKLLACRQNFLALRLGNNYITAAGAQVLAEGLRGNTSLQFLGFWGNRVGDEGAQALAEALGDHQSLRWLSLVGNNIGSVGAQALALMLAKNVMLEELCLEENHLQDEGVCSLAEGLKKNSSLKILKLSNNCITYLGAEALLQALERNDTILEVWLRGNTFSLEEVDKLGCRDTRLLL", "experiment": "PubChem AID 2334", "format": "functional"}, "[7]": {"target": "Nucleotide-binding oligomerization domain-containing protein 1 (Homo sapiens, UniProt Q9Y239)", "sequence (Q9Y239 whole entry, the tested form may be a part)": "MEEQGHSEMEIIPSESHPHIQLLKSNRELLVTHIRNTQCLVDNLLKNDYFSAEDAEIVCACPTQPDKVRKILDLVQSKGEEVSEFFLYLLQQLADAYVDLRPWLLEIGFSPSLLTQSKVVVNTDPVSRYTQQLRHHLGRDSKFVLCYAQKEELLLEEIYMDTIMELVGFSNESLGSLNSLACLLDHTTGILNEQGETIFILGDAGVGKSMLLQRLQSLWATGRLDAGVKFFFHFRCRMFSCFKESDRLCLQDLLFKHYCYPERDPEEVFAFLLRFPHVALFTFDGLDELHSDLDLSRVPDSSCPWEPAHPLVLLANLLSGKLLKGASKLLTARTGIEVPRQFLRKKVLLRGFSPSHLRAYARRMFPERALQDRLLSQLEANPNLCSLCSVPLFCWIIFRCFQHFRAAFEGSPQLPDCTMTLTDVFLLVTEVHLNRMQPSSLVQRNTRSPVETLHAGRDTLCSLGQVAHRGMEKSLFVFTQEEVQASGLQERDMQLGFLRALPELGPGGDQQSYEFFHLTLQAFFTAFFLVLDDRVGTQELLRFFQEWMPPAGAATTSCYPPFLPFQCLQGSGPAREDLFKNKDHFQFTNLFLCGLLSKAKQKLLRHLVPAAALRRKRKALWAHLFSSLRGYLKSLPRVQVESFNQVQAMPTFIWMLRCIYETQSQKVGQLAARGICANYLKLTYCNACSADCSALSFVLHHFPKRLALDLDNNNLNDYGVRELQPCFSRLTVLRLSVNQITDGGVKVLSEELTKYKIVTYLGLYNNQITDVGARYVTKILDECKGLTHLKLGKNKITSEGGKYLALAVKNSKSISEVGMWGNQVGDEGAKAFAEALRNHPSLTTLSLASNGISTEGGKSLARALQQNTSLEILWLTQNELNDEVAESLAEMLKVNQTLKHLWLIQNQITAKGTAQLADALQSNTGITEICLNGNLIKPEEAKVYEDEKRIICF", "experiment": "NOD1 signaling inhibitors, SAR follow-up, revised (AID 2333)", "format": "functional"}, "[8]": {"target": "DNA dC->dU-editing enzyme APOBEC-3G (Homo sapiens, UniProt Q9HC16)", "format": "functional"}, "Insulin-degrading enzyme": {"target": "T4, Insulin-degrading enzyme (Homo sapiens, UniProt P14735)", "T4 sequence (P14735 whole entry)": "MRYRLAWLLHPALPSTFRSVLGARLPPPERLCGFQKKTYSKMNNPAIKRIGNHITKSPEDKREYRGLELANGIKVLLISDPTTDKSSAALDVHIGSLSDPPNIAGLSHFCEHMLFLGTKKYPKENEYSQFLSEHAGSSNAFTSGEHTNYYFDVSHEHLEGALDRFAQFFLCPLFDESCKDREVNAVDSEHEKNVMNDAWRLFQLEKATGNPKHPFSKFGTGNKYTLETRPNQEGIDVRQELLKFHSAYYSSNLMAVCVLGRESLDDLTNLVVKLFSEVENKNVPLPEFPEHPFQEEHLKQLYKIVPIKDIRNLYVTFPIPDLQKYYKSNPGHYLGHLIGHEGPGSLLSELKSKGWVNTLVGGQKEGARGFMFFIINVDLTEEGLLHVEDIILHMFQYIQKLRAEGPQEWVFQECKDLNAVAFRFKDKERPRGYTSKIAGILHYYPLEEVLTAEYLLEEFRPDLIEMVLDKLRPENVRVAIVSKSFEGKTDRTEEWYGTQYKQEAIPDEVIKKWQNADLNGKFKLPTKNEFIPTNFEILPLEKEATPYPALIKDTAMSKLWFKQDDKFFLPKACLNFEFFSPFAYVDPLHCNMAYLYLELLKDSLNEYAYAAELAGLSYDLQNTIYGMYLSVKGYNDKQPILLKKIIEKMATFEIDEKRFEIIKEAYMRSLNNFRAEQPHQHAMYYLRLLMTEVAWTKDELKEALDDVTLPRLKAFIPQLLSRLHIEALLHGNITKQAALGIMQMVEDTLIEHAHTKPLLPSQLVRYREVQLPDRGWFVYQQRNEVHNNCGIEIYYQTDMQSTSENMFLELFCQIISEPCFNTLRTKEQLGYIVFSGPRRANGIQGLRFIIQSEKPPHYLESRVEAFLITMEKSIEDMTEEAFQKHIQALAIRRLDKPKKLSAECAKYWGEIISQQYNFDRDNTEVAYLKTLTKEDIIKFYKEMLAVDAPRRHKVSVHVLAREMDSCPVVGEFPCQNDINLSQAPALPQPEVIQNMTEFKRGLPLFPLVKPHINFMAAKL", "experiment": "Dose Response: Fluorescence polarization-based cell-based high throughput dose response assay for inhibitors of insulin-degrading enzyme (IDE). [Related pubchem assays: 434962 (Primary screen (IDE inhibitors in singlicate)), 449730 (Counterscreen (Cytotoxicity in triplicate)), 435028 (Confirmation (IDE inhibitors in triplicate)), 434984 (Summary …", "format": "functional"}, "[9]": {"target": "DNA dC->dU-editing enzyme APOBEC-3A (Homo sapiens, UniProt P31941)", "experiment": "Dose Response confirmation of small molecule APOBEC3A DNA Deaminase Inhibitors via a fluorescence-based single-stranded DNA deaminase assay. [Related pubchem assays (depositor defined):AID493011, AID493024]", "format": "functional"}, "[10]": {"experiment": "Counterscreen for IDE inhibitors: Luminescence-based cell-based high throughput dose response assay to identify compounds that are cytotoxic to HEK cells. [Related pubchem assays: 434962 (Primary screen (IDE inhibitors in singlicate)), 449730 (Counterscreen (Cytotoxicity in triplicate)), 435028 (Confirmation (IDE inhibitors in triplicate)) …", "format": "functional", "settings": "HEK293"}, "[11]": {"target": "Cyclin-dependent kinase 5/CDK5 activator 1 (Homo sapiens, UniProt Q00535)", "experiment": "CDK5/p35 kinase inhibitors, dose response, biochemical, cherry-picked samples, set 2 (AID 504545)"}, "Estrogen receptor beta": {"target": "Estrogen receptor beta (Homo sapiens, UniProt Q92731)"}, "[12]": {"target": "T5, Voltage-dependent T-type calcium channel subunit alpha-1H (Homo sapiens, UniProt O95180)", "T5 sequence (O95180 whole entry)": "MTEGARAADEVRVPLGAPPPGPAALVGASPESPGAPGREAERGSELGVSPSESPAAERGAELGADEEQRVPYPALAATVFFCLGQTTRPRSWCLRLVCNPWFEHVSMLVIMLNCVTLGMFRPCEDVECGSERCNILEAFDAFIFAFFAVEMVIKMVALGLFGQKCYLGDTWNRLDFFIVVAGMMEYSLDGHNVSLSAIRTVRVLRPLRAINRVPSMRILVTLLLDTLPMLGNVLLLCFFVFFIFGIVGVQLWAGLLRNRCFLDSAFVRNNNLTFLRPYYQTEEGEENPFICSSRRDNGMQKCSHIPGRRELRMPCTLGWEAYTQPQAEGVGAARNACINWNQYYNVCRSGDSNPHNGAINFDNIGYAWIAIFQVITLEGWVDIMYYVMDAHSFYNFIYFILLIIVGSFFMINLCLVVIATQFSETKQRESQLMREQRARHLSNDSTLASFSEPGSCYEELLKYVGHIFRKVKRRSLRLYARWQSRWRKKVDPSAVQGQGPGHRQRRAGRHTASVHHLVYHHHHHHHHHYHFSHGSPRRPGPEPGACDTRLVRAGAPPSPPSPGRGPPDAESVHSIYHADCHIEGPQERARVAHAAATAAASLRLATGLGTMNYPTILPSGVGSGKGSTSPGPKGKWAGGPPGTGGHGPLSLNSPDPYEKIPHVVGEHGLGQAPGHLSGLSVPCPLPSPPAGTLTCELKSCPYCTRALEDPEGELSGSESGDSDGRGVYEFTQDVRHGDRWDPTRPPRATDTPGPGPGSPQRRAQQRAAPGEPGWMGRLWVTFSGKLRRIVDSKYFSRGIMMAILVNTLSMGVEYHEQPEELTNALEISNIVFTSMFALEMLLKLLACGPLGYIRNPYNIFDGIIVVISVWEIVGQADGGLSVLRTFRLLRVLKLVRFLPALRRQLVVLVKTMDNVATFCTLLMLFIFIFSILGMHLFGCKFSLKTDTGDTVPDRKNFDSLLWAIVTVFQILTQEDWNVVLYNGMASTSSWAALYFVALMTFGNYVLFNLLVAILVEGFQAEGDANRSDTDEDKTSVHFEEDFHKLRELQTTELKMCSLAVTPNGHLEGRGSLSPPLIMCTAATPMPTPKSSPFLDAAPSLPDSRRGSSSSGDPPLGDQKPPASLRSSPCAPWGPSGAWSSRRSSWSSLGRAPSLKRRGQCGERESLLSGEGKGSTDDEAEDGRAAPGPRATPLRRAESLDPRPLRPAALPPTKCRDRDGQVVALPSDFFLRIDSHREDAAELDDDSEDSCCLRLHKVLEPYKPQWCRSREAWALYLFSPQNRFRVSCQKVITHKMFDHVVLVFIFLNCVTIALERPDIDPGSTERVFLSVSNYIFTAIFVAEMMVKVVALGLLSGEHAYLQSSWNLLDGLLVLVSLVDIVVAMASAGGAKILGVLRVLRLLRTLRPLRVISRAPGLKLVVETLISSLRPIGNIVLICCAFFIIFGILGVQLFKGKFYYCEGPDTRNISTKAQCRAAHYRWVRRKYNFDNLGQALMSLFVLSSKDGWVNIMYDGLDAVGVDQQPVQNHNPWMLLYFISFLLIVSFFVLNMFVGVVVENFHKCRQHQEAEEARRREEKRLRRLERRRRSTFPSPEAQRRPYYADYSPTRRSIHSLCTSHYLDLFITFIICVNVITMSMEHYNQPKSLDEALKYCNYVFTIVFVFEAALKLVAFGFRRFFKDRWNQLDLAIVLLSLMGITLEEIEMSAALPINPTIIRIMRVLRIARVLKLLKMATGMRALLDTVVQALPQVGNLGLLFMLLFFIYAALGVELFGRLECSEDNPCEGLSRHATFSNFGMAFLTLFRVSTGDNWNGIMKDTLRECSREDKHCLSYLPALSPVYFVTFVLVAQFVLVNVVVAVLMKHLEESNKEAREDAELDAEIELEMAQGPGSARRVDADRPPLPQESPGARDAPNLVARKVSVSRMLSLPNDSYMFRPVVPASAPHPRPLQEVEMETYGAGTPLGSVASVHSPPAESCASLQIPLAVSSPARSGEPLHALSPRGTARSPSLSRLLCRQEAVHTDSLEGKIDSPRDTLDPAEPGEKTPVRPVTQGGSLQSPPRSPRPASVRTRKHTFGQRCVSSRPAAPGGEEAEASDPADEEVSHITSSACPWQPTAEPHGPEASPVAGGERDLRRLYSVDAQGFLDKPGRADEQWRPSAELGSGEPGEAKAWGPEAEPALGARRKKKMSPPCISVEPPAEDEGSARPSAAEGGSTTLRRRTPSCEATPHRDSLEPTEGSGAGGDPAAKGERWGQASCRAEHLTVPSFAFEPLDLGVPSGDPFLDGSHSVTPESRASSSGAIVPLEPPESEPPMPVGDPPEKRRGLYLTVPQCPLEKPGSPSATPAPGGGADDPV", "experiment": "Inhibitors of T-Type Calcium Channels. [Related pubchem assays (depositor defined):AID449739, AID463087, AID489005, AID493041, AID504579, AID504584, AID504619, AID504628]", "format": "functional"}, "[13]": {"target": "T5, Voltage-dependent T-type calcium channel subunit alpha-1H", "format": "functional"}}, "note": "Active and inactive are the calls of the source.", "data": [{"smiles": "Cc1ccc2c3c(cccc13)-c1ccccc1C2=O", "values": [{"measurement": "IC50", "setting": "Protein Rev", "value": "10.1 µM (not active)"}, {"measurement": "IC50", "setting": "[1]", "value": "38.3 µM (inactive)"}, {"measurement": "IC50", "setting": "[2]", "value": "51.1 µM (inactive)"}, {"measurement": "IC50", "setting": "[3]", "value": "2.67 µM (active)"}]}, {"smiles": "CN1CCc2cccc3c2[C@H]1Cc1ccc(O)c(O)c1-3", "note": "[APOMORPHINE]", "values": [{"measurement": "IC50", "setting": "Aspartyl aminopeptidase", "value": "3.67 µM (active)"}, {"measurement": "EC50", "setting": "[4]", "value": "3.29 µM (active)"}, {"measurement": "EC50", "setting": "[5]", "value": "> 300 µM (inconclusive)"}, {"measurement": "IC50", "setting": "Procathepsin L", "value": "> 59.6 µM (not active)"}, {"measurement": "IC50", "setting": "Large T antigen", "value": "20.2 µM (active)"}]}, {"smiles": "CSC(S)=NN=Cc1ccc(Br)cc1", "values": [{"measurement": "IC50", "setting": "HEK293", "value": "> 20 µM (inactive)"}, {"measurement": "IC50", "setting": "Tumor necrosis factor", "value": "> 20 µM (inactive)"}, {"measurement": "IC50", "setting": "[6]", "value": "> 20 µM (inactive)"}, {"measurement": "IC50", "setting": "[7]", "value": "> 20 µM (inactive)"}]}, {"smiles": "CCN(CC)C(=O)c1ccc(/C=C/c2c[nH]c3ccccc23)[n+](C)c1", "values": [{"measurement": "IC50", "setting": "[8]", "value": "2.1 µM (active)"}, {"measurement": "IC50", "setting": "Insulin-degrading enzyme", "value": "16.1 µM (not active)"}, {"measurement": "IC50", "setting": "[9]", "value": "1.96 µM (active)"}, {"measurement": "IC50", "setting": "[10]", "value": "> 55.7 µM (not active)"}]}, {"smiles": "Nc1nc(Nc2cccc(Cl)c2)nc(NCCO)c1[N+](=O)[O-]", "values": [{"measurement": "AC50", "setting": "[11]", "value": "8.21 µM (active)"}]}, {"smiles": "COc1ccc(-c2noc(CCC(=O)N3CCN(c4cccc(C(F)(F)F)c4)CC3)n2)cc1", "values": [{"measurement": "IC50", "setting": "Estrogen receptor beta", "value": "> 50 µM (not active)"}, {"measurement": "EC50", "setting": "[12]", "value": "4.32 µM (active)"}, {"measurement": "EC50", "setting": "[13]", "value": "1.62 µM (active)"}]}]}
